Experimental findings from US20120053235A1, “Dihydromyricetin as an IKK-beta inhibitor used for treatment of arthritis, cancer and autoimmune conditions, and other diseases or disorders” (HONG KONG BAPTIST UNIVERSITY, priority 2010, published 2012) are described below.

In data set [1] the test system is collagen II induced arthritis in female Wistar rats. Briefly: Collagen II induced arthritis (CIA). It counts as in vivo. As for the experimental part:
Collagen II solution (collagen, 2 mg/ml in 0.05M acetic acid, Chondrex 20022, Redmond, Wash., USA) was emulsified with an equal volume of incomplete Freund's adjuvant (IFA, Chondrex 7002, Redmond, Wash., USA) at 4° C. using a high-speed homogenizer. In the experiment of CIA, DMY was encapsulated with HP-CD (1:8.48) and then dissolved in the normal saline with drug concentrations of 50 and 100 mg/kg body weight. Rats were intradermally injected at the base of the tail with 100 μl collagen/incomplete Freund's adjuvant (IFA) emulsion containing […] of collagen II by the use of a glass syringe equipped with a locking hub and a 27-G needle. On day 7 after the primary immunization, all the rats were given a booster injection of 100 μg of collagen II in IFA. On the day after the onset of arthritis (day 13), the CIA rats were exposed to a daily intraperitoneal administration of DMY (50 and 100 mg/kg) until day 30 of the study. DEX (0.1 mg/kg, one per day), MTX (3.75 mg/kg, twice per week), and indomethacin (1 mg/kg, one per day) were used as positive reference drugs. The rats were inspected daily from the onset of arthritis characterized by edema and/or erythema in the paws. The incidence and severity of arthritis were evaluated using an arthritic scoring system, and bi-hind paw volumes and body weight were measured every 2 days started on the day when the arthritic signs were firstly visible (day 13). In the arthritic scoring system, lesions (i.e., the clinical arthritic signs) of the four paws of each rat were graded from 0 to 4 according to the extent of both edema and erythema of the periarticular tissues. As such, 16 was the potential maximum of the combined arthritic scores per animal. The hind paw volumes were measured using a plethysmometer chamber (7140 UGO. Basile, Comerio, Italy) and expressed as the mean volume change of both hind paws of the rats. Body weight of the rats was monitored with a 0.1 g precision balance (Sartorius AG, Goettingen, Germany). On day 30, all rats were sacrificed with liver, spleen and thymus being collected and weighted. The organ index for a specific organ is equal to the ratio of the weight of that organ to a body weight of 100 g.

The subject of data set [2] is ear edema induced by dinitrofluorobenzene in male ICR mice. As to the kind of experiment: Delay-type hypersensitivity test (DNFB-induced ear edema). The conditions noted are these: DTHT mice, topical treatment. It counts as in vivo. On the procedure: Male mice were sensitized through topical application of 20 μl of 0.5% (v/v) dinitrofluorobenzene (DNFB) in acetone onto the shaved abdomen on days 1 and 2. Challenge was then preformed in day 6 by applying DNFB (20 μl, 0.5%, v/v) on the left inner and outer ear surfaces of mice. DMY (at doses of 0.5, 1, 2 mg/ear) and DEX (0.025 mg/ear, Sigma-Aldrich) dissolved in acetone was topically applied (20 μl) to the ears at 2nd, 24th, 48th, and 72nd hour after the challenge. The mice were sacrificed by cervical dislocation, and then the same area of the ears was punched from each animal. Spleens and thymuses were isolated and weighted. The ear edema was calculated according to the differences between the weight of the right and left ears. The control group was treated only with DNFB.

On to `CN(Cc1cnc2nc(N)nc(N)c2n1)c1ccc(C(=O)N[C@@H](CCC(=O)O)C(=O)O)cc1` [MTX, reference compound], for which the “organ indexes of spleen and/or thymus” value in data set [1] (rat, in vivo) was “significant reduction”.
`COc1ccc2c(c1)c(CC(=O)O)c(C)n2C(=O)c1ccc(Cl)cc1` [indomethacin, reference compound]: the “organ indexes of spleen and/or thymus” value in data set [1] (CIA rats, day 30, FIG. 10C) is “significant reduction”. For the same molecule, the body weight entry in data set [1] (CIA rats, FIG. 100D) is reported as “significant reduction in body weight”.
`C[C@@H]1C[C@H]2[C@@H]3CCC4=CC(=O)C=C[C@]4(C)[C@@]3(F)[C@@H](O)C[C@]2(C)[C@@]1(O)C(=O)CO` [DEX, reference compound]: the body weight result in data set [2] was “greatly reduced”. For the same molecule, in data set [2] (FIGS. 9B and C), the spleen weight entry is given as “decreased” and the thymus weight result is reported as “decreased”. For the same molecule, in data set [1] (rat, in vivo), the “organ indexes of spleen and/or thymus” value is on record as “significant reduction”.
